Laboratory results taken from patent US12655116B2, “Substituted isophthalic acid diamides” (Bayer Aktiengesellschaft, priority 2020, dated 2026).

Tests used:
ABUTH [1] = experiment: Pre-emergence herbicidal action against ABUTH; type: in vivo, Abutilon theophrasti; conditions: Abutilon theophrasti, 504 h
Method in brief: (§1)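 Seeds sown in sandy loam, soil-covered; compound sprayed on soil surface pre-emergence. Application: WP/EC, 600–800 l/ha, 0.2% wetting agent. Readout: visual % damage at 3 weeks.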

ALOMY [2] = experiment: Pre-emergence herbicidal action against ALOMY; type: in vivo, Alopecurus myosuroides; conditions: Alopecurus myosuroides, 504 h, pre-emergence
Method in brief: as §1

AMARE [3] = experiment: Pre-emergence herbicidal action against AMARE; type: in vivo, Amaranthus retroflexus; conditions: Amaranthus retroflexus, 504 h, scored visually after 3 weeks vs untreated controls, 100% = plants have died, 0% = like control plants
Method in brief: as §1

AVEFA = experiment: Pre-emergence herbicidal action against AVEFA; type: in vivo, Avena fatua; conditions: Avena fatua, 504 h; 80 g/ha, pre-emergence
Method in brief: as §1

ECHCG = experiment: Pre-emergence herbicidal action against ECHCG; type: in vivo, Echinochloa crus-galli; conditions: Echinochloa crus-galli, 504 h, 80 g/ha
Method in brief: as §1

MATIN [4] = experiment: Pre-emergence herbicidal action against MATIN; type: in vivo, Matricaria inodora; conditions: Tripleurospermum inodorum, 504 h
Method in brief: as §1

PHBPU [5] = experiment: Pre-emergence herbicidal action against PHBPU; type: in vivo, Pharbitis purpurea; conditions: Ipomoea purpurea, 504 h, dosage 80 g/ha
Method in brief: as §1

POLCO = experiment: Pre-emergence herbicidal action against POLCO; type: in vivo, Polygonum convolvulus; conditions: Fallopia convolvulus, 504 h, dosage 80 g/ha
Method in brief: as §1

SETVI [6] = experiment: Pre-emergence herbicidal action against SETVI; type: in vivo, Setaria viridis; conditions: Setaria viridis, 504 h
Method in brief: as §1

VERPE [7] = experiment: Pre-emergence herbicidal action against VERPE; type: in vivo, Veronica persica; conditions: Veronica persica, 504 h, dosage 80 g/ha
Method in brief: as §1

VIOTR [8] = experiment: Pre-emergence herbicidal action against VIOTR; type: in vivo, Viola tricolor; conditions: Viola tricolor, 504 h
Method in brief: as §1

DIGSA [9] = experiment: Pre-emergence herbicidal action against DIGSA; type: in vivo, Digitaria sanguinalis; conditions: Digitaria sanguinalis, 504 h
Method in brief: as §1

ABUTH [10] = experiment: Post-emergence herbicidal action against ABUTH; type: in vivo, Abutilon theophrasti; conditions: Abutilon theophrasti, 504 h, dosage 20 g/ha, visual assessment about 3 weeks after treatment vs untreated controls
Method in brief: (§2)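 Percent herbicidal action is rated by eye about 3 weeks after treatment against untreated controls, where 100% means dead plants and 0% means like controls. Plants in sandy loam are sprayed on green parts at the one-leaf stage with aqueous WP or EC preparations at 600 to 800 l/ha plus 0.2% wetting agent.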

ALOMY [11] = experiment: Post-emergence herbicidal action against ALOMY; type: in vivo, Alopecurus myosuroides; conditions: Alopecurus myosuroides, 504 h, dosage 20 g/ha, visual assessment about 3 weeks after treatment vs untreated controls
Method in brief: as §2

AMARE [12] = experiment: Post-emergence herbicidal action against AMARE; type: in vivo, Amaranthus retroflexus; conditions: Amaranthus retroflexus, 504 h, 20 g/ha, visual assessment about 3 weeks after treatment, 100% = plants have died, 0% = like control plants
Method in brief: as §2

MATIN [13] = experiment: Post-emergence herbicidal action against MATIN; type: in vivo, Matricaria inodora; conditions: Tripleurospermum inodorum, 504 h
Method in brief: as §2

PHBPU [14] = experiment: Post-emergence herbicidal action against PHBPU; type: in vivo, Pharbitis purpurea; conditions: Ipomoea purpurea, 504 h, dosage 20 g/ha
Method in brief: as §2

SETVI [15] = experiment: Post-emergence herbicidal action against SETVI; type: in vivo, Setaria viridis; conditions: Setaria viridis, 504 h
Method in brief: as §2

VERPE [16] = experiment: Post-emergence herbicidal action against VERPE; type: in vivo, Veronica persica; conditions: Veronica persica, 504 h
Method in brief: as §2

VIOTR [17] = experiment: Post-emergence herbicidal action against VIOTR; type: in vivo, Viola tricolor; conditions: Viola tricolor, 504 h
Method in brief: as §2

DIGSA [18] = experiment: Post-emergence herbicidal action against DIGSA; type: in vivo, Digitaria sanguinalis; conditions: Digitaria sanguinalis, 504 h
Method in brief: as §2

[19] = 80 g/ha, scored visually after 3 weeks vs untreated controls (100% = plants have died, 0% = like control plants)

With CCn1nnnc1NC(=O)c1ccc(C(F)(F)F)c(C(=O)NC)c1Br [Example 2-207] the pest or weed control at 80 g/ha (ABUTH [1]; [19]) was 100%, the pest or weed control at 20 g/ha (ABUTH [1]; dosage 20 g/ha, scored visually after 3 weeks vs untreated controls, 100% = plants have died, 0% = like control plants, read-out: Pre-emergence action against ABUTH (herbicidal activity in percent)) was 100% and the pest or weed control at 80 g/ha (ALOMY [2]; [19]) was 90%. It also gave a pest or weed control at 20 g/ha (ALOMY [2]; 20 g/ha, scored visually after 3 weeks, 100% = plants have died, 0% = like control plants) of 80%, a pest or weed control at 20 g/ha (AMARE [3]; 20 g/ha) of 100% and a pest or weed control at 80 g/ha (AMARE [3]; 80 g/ha) of 100%. For the same compound, the pest or weed control at 80 g/ha (AVEFA) was 90%, the pest or weed control at 80 g/ha (ECHCG) was 100% and the pest or weed control at 20 g/ha (MATIN [4]; dosage 20 g/ha) was 90%. It also gave a pest or weed control at 80 g/ha (MATIN [4]; dosage 80 g/ha) of 100%, a pest or weed control at 80 g/ha (PHBPU [5]) of 80% and a pest or weed control at 80 g/ha (POLCO) of 90%. It also gave a pest or weed control at 20 g/ha (SETVI [6]; dosage 20 g/ha) of 100%, a pest or weed control at 80 g/ha (SETVI [6]; dosage 80 g/ha) of 100% and a pest or weed control at 80 g/ha (VERPE [7]) of 90%. It also gave a pest or weed control at 20 g/ha (VIOTR [8]; dosage 20 g/ha) of 90%, a pest or weed control at 80 g/ha (VIOTR [8]; dosage 80 g/ha) of 100% and a pest or weed control at 20 g/ha (DIGSA [9]; dosage 20 g/ha) of 90%. The pest or weed control at 80 g/ha (DIGSA [9]; dosage 80 g/ha) was 100%, the pest or weed control at 20 g/ha (ABUTH [10]) was 90% and the pest or weed control at 20 g/ha (ALOMY [11]) was 90%. The pest or weed control at 20 g/ha (AMARE [12]) was 100%, the pest or weed control at 5 g/ha (MATIN [13]; dosage 5 g/ha) was 80% and the pest or weed control at 20 g/ha (MATIN [13]; dosage 20 g/ha) was 90%. For the same compound, the pest or weed control at 20 g/ha (PHBPU [14]) was 80%, the pest or weed control at 5 g/ha (SETVI [15]; dosage 5 g/ha) was 90% and the pest or weed control at 20 g/ha (SETVI [15]; dosage 20 g/ha) was 100%. For the same compound, the pest or weed control at 5 g/ha (VERPE [16]; 5 g/ha) was 80%, the pest or weed control at 20 g/ha (VERPE [16]; 20 g/ha) was 90% and the pest or weed control at 5 g/ha (VIOTR [17]; 5 g/ha) was 100%. The pest or weed control at 20 g/ha (VIOTR [17]; 20 g/ha) was 100%, the pest or weed control at 5 g/ha (DIGSA [18]; 5 g/ha) was 80% and the pest or weed control at 20 g/ha (DIGSA [18]; 20 g/ha) was 100%.
